Experiments:
Test in all cases: scanMAX KINOMEscan (Eurofins)
Format in all cases: binding
ACVR2A = ACVR2A (Homo sapiens, UniProt P27037); conditions: read-out: Percent Control
Text: (§1) Supplement cb5c00097_si_002.xlsx, sheet "Table S6 (Eurofins Selectivity)" | column: Percent Control

ANKK1 = ANKK1 (Homo sapiens, UniProt Q8NFD2); conditions: 1000 nM, read-out: Percent Control
Text: as §1

AURKA = AURKA (Homo sapiens, UniProt O14965); conditions: 1000 nM, read-out: Percent Control
Text: as §1

BLK = BLK (Homo sapiens, UniProt P51451); conditions: 1000 nM, read-out: Percent Control
Text: as §1

CDK4 = CDK4 (Homo sapiens, UniProt P11802); conditions: 1000 nM, read-out: Percent Control
Text: as §1

CHEK2 = CHEK2 (Homo sapiens, UniProt O96017); conditions: read-out: Percent Control
Sequence of CHEK2 (O96017 whole entry): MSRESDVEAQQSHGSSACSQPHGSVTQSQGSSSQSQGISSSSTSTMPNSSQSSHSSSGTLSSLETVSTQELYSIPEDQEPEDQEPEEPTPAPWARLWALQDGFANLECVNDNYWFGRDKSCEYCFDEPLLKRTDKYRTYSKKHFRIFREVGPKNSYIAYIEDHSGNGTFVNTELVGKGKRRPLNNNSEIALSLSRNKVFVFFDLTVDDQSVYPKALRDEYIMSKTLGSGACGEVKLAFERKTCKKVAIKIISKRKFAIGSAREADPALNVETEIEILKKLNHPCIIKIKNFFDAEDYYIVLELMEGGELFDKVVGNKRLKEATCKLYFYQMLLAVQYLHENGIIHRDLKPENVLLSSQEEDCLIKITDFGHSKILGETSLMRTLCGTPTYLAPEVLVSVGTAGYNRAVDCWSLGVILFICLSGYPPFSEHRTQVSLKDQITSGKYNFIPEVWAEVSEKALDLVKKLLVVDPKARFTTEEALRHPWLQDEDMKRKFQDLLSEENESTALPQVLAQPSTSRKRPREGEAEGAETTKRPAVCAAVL
Text: as §1

CSF1R = CSF1R (Homo sapiens, UniProt P07333); conditions: read-out: Percent Control
Sequence of CSF1R (P07333 20-972): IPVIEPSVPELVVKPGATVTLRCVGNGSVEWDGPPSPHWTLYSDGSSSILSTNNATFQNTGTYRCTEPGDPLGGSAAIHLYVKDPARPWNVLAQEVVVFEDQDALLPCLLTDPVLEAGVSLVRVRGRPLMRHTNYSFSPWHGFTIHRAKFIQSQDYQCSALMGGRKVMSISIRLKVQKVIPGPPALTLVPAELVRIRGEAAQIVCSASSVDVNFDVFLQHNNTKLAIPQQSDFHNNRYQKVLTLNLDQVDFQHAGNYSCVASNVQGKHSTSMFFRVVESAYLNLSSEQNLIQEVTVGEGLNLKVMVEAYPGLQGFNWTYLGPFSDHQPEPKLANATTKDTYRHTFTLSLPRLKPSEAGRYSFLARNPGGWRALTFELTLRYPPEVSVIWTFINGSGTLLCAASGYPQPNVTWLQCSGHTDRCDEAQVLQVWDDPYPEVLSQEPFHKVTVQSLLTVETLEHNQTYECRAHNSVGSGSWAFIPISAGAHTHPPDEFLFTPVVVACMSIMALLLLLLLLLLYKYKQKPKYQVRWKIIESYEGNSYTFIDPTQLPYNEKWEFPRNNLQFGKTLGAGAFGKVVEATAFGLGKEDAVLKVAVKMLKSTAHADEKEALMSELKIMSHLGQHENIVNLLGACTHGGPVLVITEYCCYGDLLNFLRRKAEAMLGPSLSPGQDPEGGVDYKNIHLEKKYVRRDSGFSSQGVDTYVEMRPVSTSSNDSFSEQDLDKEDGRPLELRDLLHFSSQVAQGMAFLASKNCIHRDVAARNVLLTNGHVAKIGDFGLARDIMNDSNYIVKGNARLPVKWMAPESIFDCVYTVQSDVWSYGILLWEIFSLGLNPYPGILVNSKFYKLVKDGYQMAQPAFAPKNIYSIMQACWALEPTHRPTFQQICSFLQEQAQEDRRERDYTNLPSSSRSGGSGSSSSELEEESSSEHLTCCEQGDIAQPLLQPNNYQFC
Text: as §1

CSNK2A1 = CSNK2A1 (Homo sapiens, UniProt P68400); conditions: read-out: Percent Control
Sequence of CSNK2A1 (P68400 whole entry): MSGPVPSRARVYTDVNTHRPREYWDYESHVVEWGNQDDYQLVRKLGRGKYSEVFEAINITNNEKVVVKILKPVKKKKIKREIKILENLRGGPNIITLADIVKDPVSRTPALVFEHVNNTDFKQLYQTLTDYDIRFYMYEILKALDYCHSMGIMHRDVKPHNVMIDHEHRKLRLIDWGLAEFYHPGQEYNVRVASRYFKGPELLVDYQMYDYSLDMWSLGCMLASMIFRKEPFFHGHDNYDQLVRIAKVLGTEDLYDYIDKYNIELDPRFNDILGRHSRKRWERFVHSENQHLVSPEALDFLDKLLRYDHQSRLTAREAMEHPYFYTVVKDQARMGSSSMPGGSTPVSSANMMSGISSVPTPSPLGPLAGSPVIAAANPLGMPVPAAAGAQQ
Text: as §1

CSNK2A2 = CSNK2A2 (Homo sapiens, UniProt P19784); conditions: 1000 nM, read-out: Percent Control
Text: as §1

EPHB1 = EPHB1 (Homo sapiens, UniProt P54762); conditions: 1000 nM, read-out: Percent Control
Text: as §1

ERBB2 = ERBB2 (Homo sapiens, UniProt P04626); conditions: read-out: Percent Control
Sequence of ERBB2 (P04626 23-1255): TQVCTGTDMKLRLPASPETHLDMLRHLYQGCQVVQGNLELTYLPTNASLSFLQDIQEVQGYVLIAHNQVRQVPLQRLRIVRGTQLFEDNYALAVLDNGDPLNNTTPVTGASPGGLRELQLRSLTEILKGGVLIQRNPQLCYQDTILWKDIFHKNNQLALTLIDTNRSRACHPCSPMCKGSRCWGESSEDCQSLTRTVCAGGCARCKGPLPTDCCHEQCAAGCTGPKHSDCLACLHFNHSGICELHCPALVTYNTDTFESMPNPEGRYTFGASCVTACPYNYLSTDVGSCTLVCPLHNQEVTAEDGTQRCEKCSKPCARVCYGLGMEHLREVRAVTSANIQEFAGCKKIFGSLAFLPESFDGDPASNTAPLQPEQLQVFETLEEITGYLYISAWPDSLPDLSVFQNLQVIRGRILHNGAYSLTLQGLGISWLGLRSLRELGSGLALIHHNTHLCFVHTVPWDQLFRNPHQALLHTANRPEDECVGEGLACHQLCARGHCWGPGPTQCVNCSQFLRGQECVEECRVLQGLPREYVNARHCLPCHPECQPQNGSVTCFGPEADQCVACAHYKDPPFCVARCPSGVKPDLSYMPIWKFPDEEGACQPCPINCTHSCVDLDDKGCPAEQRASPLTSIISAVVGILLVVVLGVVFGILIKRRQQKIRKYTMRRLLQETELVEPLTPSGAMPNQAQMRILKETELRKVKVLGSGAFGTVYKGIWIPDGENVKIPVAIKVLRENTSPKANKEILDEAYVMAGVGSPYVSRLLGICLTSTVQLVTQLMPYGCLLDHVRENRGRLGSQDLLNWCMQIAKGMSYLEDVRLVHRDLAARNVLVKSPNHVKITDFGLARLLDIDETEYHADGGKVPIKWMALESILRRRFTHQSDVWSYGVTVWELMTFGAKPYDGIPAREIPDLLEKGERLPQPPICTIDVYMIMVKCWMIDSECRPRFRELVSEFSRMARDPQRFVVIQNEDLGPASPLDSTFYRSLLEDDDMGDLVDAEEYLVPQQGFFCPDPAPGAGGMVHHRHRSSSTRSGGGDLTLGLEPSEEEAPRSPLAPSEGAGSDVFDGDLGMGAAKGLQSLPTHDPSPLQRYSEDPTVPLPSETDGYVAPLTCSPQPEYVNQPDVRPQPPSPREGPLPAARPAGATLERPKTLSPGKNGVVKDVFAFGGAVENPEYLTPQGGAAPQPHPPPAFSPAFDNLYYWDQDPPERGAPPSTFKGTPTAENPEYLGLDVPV
Text: as §1

ERK2 = ERK2 (Homo sapiens, UniProt P28482); conditions: 1000 nM, read-out: Percent Control
Text: as §1

FGFR1 = FGFR1 (Homo sapiens, UniProt P11362); conditions: read-out: Percent Control
Text: as §1

GRK2 = GRK2 (Homo sapiens, UniProt P25098); conditions: read-out: Percent Control
Text: as §1

HIPK3 = HIPK3 (Homo sapiens, UniProt Q9H422); conditions: 1000 nM, read-out: Percent Control
Text: as §1

IGF1R = IGF1R (Homo sapiens, UniProt P08069); conditions: read-out: Percent Control
Sequence of IGF1R (P08069 31-1367): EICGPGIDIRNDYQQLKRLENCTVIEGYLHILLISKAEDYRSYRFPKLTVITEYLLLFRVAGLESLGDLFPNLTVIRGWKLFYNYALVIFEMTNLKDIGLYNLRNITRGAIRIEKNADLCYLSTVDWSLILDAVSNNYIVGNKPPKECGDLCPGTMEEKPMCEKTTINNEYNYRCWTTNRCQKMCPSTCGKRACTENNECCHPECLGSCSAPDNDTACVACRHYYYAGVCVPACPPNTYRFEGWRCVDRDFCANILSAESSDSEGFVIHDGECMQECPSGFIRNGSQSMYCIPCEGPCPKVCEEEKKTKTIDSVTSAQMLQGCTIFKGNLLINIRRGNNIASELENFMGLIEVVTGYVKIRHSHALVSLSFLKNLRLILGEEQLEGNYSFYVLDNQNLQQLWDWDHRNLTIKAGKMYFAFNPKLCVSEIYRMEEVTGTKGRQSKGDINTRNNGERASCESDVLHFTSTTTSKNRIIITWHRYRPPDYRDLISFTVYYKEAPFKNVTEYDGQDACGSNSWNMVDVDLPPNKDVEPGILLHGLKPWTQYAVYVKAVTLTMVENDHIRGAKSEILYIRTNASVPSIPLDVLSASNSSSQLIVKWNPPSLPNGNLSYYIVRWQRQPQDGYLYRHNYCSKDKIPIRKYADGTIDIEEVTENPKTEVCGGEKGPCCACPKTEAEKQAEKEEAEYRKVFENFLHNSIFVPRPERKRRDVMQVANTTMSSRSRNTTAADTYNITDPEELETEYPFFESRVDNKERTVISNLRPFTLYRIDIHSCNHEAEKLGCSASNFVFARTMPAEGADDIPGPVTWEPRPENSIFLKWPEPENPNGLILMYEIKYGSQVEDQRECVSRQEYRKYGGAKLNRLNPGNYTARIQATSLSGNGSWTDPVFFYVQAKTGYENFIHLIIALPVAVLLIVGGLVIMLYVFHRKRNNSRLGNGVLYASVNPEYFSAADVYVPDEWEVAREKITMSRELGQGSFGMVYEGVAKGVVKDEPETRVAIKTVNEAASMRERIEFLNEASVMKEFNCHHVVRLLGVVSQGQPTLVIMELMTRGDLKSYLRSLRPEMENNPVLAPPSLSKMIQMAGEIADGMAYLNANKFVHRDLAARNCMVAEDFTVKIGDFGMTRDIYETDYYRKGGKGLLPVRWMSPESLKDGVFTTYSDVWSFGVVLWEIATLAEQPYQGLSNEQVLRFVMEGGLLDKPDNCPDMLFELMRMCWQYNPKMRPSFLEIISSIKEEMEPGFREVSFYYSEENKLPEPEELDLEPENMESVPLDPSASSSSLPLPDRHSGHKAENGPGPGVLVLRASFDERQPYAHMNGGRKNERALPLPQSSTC
Text: as §1

LATS2 = LATS2 (Homo sapiens, UniProt Q9NRM7); conditions: 1000 nM, read-out: Percent Control
Text: as §1

MAP4K2 = MAP4K2 (Homo sapiens, UniProt Q12851); conditions: 1000 nM, read-out: Percent Control
Text: as §1

MLK3 = MLK3 (Homo sapiens, UniProt Q16584); conditions: 1000 nM, read-out: Percent Control
Text: as §1

NDR2 = NDR2 (Homo sapiens, UniProt Q9Y2H1); conditions: 1000 nM, read-out: Percent Control
Text: as §1

NEK10 = NEK10 (Homo sapiens, UniProt Q6ZWH5); conditions: 1000 nM, read-out: Percent Control
Text: as §1

NEK7 = NEK7 (Homo sapiens, UniProt Q8TDX7); conditions: 1000 nM, read-out: Percent Control
Text: as §1

PFTK1 = PFTK1 (Homo sapiens, UniProt O94921); conditions: 1000 nM, read-out: Percent Control
Text: as §1

PIK3CG = PIK3CG (Homo sapiens, UniProt P48736); conditions: 1000 nM, read-out: Percent Control
Text: as §1

PIM1 = PIM1 (Homo sapiens, UniProt P11309); conditions: 1000 nM, read-out: Percent Control
Text: as §1

PRKR = PRKR (Homo sapiens, UniProt P19525); conditions: compound concentration 100 nM; Entrez EIF2AK2; read-out: Percent Control
Text: as §1

PRKX = PRKX (Homo sapiens, UniProt P51817); conditions: 1000 nM, read-out: Percent Control
Text: as §1

RIOK1 = RIOK1 (Homo sapiens, UniProt Q9BRS2); conditions: 1000 nM, read-out: Percent Control
Text: as §1

ROS1 = ROS1 (Homo sapiens, UniProt P08922); conditions: 1000 nM, read-out: Percent Control
Text: as §1

[1] = target: RPS6KA5(Kin.Dom.2-C-terminal) (Homo sapiens, UniProt O75582); conditions: compound concentration 100 nM; Entrez RPS6KA5; read-out: Percent Control
Text: as §1

[2] = target: RSK1(Kin.Dom.1-N-terminal) (Homo sapiens, UniProt Q15418); conditions: compound concentration 100 nM; Entrez RPS6KA1; read-out: Percent Control
Text: as §1

[3] = target: RSK3(Kin.Dom.1-N-terminal) (Homo sapiens, UniProt Q15349); conditions: 1000 nM, read-out: Percent Control
Text: as §1

STK33 = STK33 (Homo sapiens, UniProt Q9BYT3); conditions: compound concentration 100 nM; Entrez STK33; read-out: Percent Control
Text: as §1

SYK = SYK (Homo sapiens, UniProt P43405); conditions: 1000 nM, read-out: Percent Control
Text: as §1

SgK110 = SgK110 (Homo sapiens, UniProt P0C264); conditions: compound concentration 100 nM; Entrez SgK110; read-out: Percent Control
Text: as §1

WEE1 = WEE1 (Homo sapiens, UniProt P30291); conditions: 1000 nM, read-out: Percent Control
Text: as §1

p38-gamma = p38-gamma (Homo sapiens, UniProt P53778); conditions: 1000 nM, read-out: Percent Control
Text: as §1

Sequence of ACVR2A (P27037 20-513): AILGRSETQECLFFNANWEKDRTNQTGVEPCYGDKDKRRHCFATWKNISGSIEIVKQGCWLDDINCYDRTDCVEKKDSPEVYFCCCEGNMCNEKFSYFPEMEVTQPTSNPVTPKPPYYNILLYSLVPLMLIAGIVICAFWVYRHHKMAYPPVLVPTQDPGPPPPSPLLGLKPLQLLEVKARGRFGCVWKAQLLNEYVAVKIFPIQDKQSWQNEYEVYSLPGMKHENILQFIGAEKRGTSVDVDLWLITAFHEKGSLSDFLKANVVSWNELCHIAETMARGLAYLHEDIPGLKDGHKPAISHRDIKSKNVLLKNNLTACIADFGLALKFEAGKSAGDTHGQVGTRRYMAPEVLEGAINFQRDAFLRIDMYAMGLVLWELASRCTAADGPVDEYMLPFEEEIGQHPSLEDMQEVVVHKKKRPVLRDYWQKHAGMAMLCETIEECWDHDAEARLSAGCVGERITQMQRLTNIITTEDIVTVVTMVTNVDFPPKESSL

Compound CN1C(=O)[C@@H](N2CCc3c(nn(Cc4ccccc4)c3C(N)=O)C2=O)COc2cc(Cl)ccc21 [Compound 10, (S)-2-benzyl-6-(8-chloro-5-methyl-4-oxo-2,3,4,5-tetrahydrobenzo[b][1,4]oxazepin-3-yl)-7-oxo-4,5,6,7-tetrahydro-2H-pyrazolo[3,4-c]pyridine-3-carboxamide] has a remaining binding at 1 µM (ACVR2A; 1000 nM) of 100%, a remaining binding at 0.1 µM (ACVR2A; compound concentration 100 nM, Entrez ACVR2A) of 100% and a remaining binding at 1 µM (ANKK1) of 80%. It also gave a remaining binding at 1 µM (AURKA) of 72%, a remaining binding at 1 µM (BLK) of 88% and a remaining binding at 1 µM (CDK4) of 76%. The remaining binding at 1 µM (CHEK2; 1000 nM) was 100%, the remaining binding at 0.1 µM (CHEK2; compound concentration 100 nM, Entrez CHEK2) was 100% and the remaining binding at 1 µM (CSF1R; 1000 nM) was 100%. For the same compound, the remaining binding at 0.1 µM (CSF1R; compound concentration 100 nM, Entrez CSF1R) was 83%, the remaining binding at 1 µM (CSNK2A1; 1000 nM) was 100% and the remaining binding at 0.1 µM (CSNK2A1; compound concentration 100 nM, Entrez CSNK2A1) was 82%. For the same compound, the remaining binding at 1 µM (CSNK2A2) was 88%, the remaining binding at 1 µM (EPHB1) was 94% and the remaining binding at 1 µM (ERBB2; 1000 nM) was 100%. The remaining binding at 0.1 µM (ERBB2; compound concentration 100 nM, Entrez ERBB2) was 100%, the remaining binding at 1 µM (ERK2) was 95% and the remaining binding at 1 µM (FGFR1; 1000 nM) was 100%. The remaining binding at 0.1 µM (FGFR1; compound concentration 100 nM, Entrez FGFR1) was 88%, the remaining binding at 1 µM (GRK2; 1000 nM) was 99% and the remaining binding at 0.1 µM (GRK2; compound concentration 100 nM, Entrez ADRBK1) was 91%. For the same compound, the remaining binding at 1 µM (HIPK3) was 94%, the remaining binding at 1 µM (IGF1R; 1000 nM) was 100% and the remaining binding at 0.1 µM (IGF1R; compound concentration 100 nM, Entrez IGF1R) was 88%. It also gave a remaining binding at 1 µM (LATS2) of 69%, a remaining binding at 1 µM (MAP4K2) of 88% and a remaining binding at 1 µM (MLK3) of 92%. For the same compound, the remaining binding at 1 µM (NDR2) was 96%, the remaining binding at 1 µM (NEK10) was 94% and the remaining binding at 1 µM (NEK7) was 93%. It also gave a remaining binding at 1 µM (PFTK1) of 79%, a remaining binding at 1 µM (PIK3CG) of 90% and a remaining binding at 1 µM (PIM1) of 78%. The remaining binding at 0.1 µM (PRKR) was 71%, the remaining binding at 1 µM (PRKX) was 78% and the remaining binding at 1 µM (RIOK1) was 85%. For the same compound, the remaining binding at 1 µM (ROS1) was 88%, the remaining binding at 0.1 µM [1] was 95% and the remaining binding at 0.1 µM [2] was 75%. It also gave a remaining binding at 1 µM [3] of 93%, a remaining binding at 0.1 µM (STK33) of 80% and a remaining binding at 1 µM (SYK) of 95%. The remaining binding at 0.1 µM (SgK110) was 93%, the remaining binding at 1 µM (WEE1) was 95% and the remaining binding at 1 µM (p38-gamma) was 70%.

— PMC12090182, “Repurposing of the RIPK1-Selective Benzo[1,4]oxazepin-4-one Scaffold for the Development of a Type III LIMK1/2 Inhibitor” (ACS Chemical Biology, 2025)
